{
  "source": "patent US7417156B2",
  "about": "“Orally active, antimalarial, anticancer, artemisinin-derived trioxane dimers” (Johns Hopkins University, priority 2002, dated 2008)",
  "key": {"UO-31": {"test_system": "UO-31", "assay": "NCI 60 cell line panel screen (SRB)", "assay_type": "cell-based, human"}, "NCI-H322M": {"test_system": "NCI-H322M", "assay_type": "cell-based"}, "SK-MEL-28": {"test_system": "SK-MEL-28", "assay": "NCI 60 cell line panel screen (SRB)", "assay_type": "cell-based, human"}, "MDA-MB-435": {"test_system": "MDA-MB-435", "assay": "NCI 60 cell line panel screen (SRB)", "assay_type": "cell-based, human"}, "COLO 205": {"test_system": "COLO 205", "assay": "NCI 60 cell line panel screen (SRB)", "assay_type": "cell-based, human"}, "T-47D": {"test_system": "T-47D", "assay": "NCI 60 cell line panel screen (SRB)", "assay_type": "cell-based, human"}, "OVCAR-8": {"test_system": "OVCAR-8", "assay": "NCI 60 cell line panel screen (SRB)", "assay_type": "cell-based, human"}, "SNB-75": {"test_system": "SNB-75", "assay": "NCI 60 cell line panel screen (SRB)", "assay_type": "cell-based, human"}, "HT29": {"test_system": "HT29", "assay": "NCI 60 cell line panel screen (SRB)", "assay_type": "cell-based, human"}, "OVCAR-5": {"test_system": "OVCAR-5", "assay": "NCI 60 cell line panel screen (SRB)", "assay_type": "cell-based, human"}, "TK-10": {"test_system": "TK-10", "assay": "NCI 60 cell line panel screen (SRB)", "assay_type": "cell-based, human"}, "U251": {"test_system": "U251", "assay": "NCI 60 cell line panel screen (SRB)", "assay_type": "cell-based, human"}, "786-0": {"test_system": "786-0", "assay": "NCI 60 cell line panel screen (SRB)", "assay_type": "cell-based, human"}},
  "data": [
    {"smiles": "C[C@@H]1CC[C@H]2[C@@H](C)C(CC(O)(CC3OC4O[C@]5(C)CC[C@H]6[C@H](C)CC[C@@H]([C@H]3C)C46OO5)c3ccc(C(=O)O)cc3)OC3O[C@]4(C)CCC1C32OO4", "note": "(stereo partly drawn) [Compound 11b, bis-trioxane tertiary alcohol benzoic acid]", "values": [
      {"measurement": "Log10GI50", "setting": "UO-31; Renal Cancer, UO-31", "result": "−6.78"},
      {"measurement": "Log10LC50", "setting": "UO-31; UO-31 (Renal Cancer), LC50: PG=−50", "result": ">−4.30", "unit": "log10M"},
      {"measurement": "Log10TGI50", "setting": "UO-31; UO-31 (Renal Cancer), TGI: PG=0", "result": ">−4.30", "unit": "log10M"},
      {"measurement": "Log10GI50", "setting": "NCI-H322M", "result": "−6.72"},
      {"measurement": "Log10TGI50", "setting": "NCI-H322M", "result": ">−4.30", "unit": "log10M"},
      {"measurement": "Log10LC50", "setting": "NCI-H322M; NCI-H322M (Non-Small Cell Lung Cancer), LC50: PG=−50", "result": ">−4.30", "unit": "log10M"},
      {"measurement": "Log10GI50", "setting": "SK-MEL-28; Melanoma, SK-MEL-28", "result": "−6.40"},
      {"measurement": "Log10LC50", "setting": "SK-MEL-28; SK-MEL-28 (Melanoma), LC50: PG=−50", "result": ">−4.30", "unit": "log10M"},
      {"measurement": "Log10TGI50", "setting": "SK-MEL-28; SK-MEL-28 (Melanoma), TGI: PG=0", "result": ">−4.30", "unit": "log10M"},
      {"measurement": "Log10GI50", "setting": "MDA-MB-435; Breast Cancer, MDA-MB-435", "result": "−8.16"},
      {"measurement": "Log10LC50", "setting": "MDA-MB-435; MDA-MB-435 (Breast Cancer), LC50: PG=−50", "result": ">−4.30", "unit": "log10M"},
      {"measurement": "Log10TGI50", "setting": "MDA-MB-435; MDA-MB-435 (Breast Cancer), TGI: PG=0", "result": ">−4.30", "unit": "log10M"},
      {"measurement": "Log10LC50", "setting": "COLO 205; COLO 205 (Colon Cancer), LC50: PG=−50", "result": "−5.28", "unit": "log10M"},
      {"measurement": "Log10TGI50", "setting": "COLO 205; COLO 205 (Colon Cancer), TGI: PG=0", "result": "−6.99", "unit": "log10M"},
      {"measurement": "Log10GI50", "setting": "COLO 205; Colon Cancer, COLO 205", "result": "<−8.30"},
      {"measurement": "Log10GI50", "setting": "T-47D; Breast Cancer, T-47D", "result": "<−8.30"},
      {"measurement": "Log10LC50", "setting": "T-47D; T-47D (Breast Cancer), LC50: PG=−50", "result": ">−4.30", "unit": "log10M"},
      {"measurement": "Log10TGI50", "setting": "T-47D; T-47D (Breast Cancer), TGI: PG=0", "result": ">−4.30", "unit": "log10M"},
      {"measurement": "Log10LC50", "setting": "OVCAR-8; OVCAR-8 (Ovarian Cancer), LC50: PG=−50", "result": ">−4.30", "unit": "log10M"},
      {"measurement": "Log10TGI50", "setting": "OVCAR-8; OVCAR-8 (Ovarian Cancer), TGI: PG=0", "result": ">−4.30", "unit": "log10M"},
      {"measurement": "Log10GI50", "setting": "OVCAR-8; Ovarian Cancer, OVCAR-8", "result": "−5.26"},
      {"measurement": "Log10GI50", "setting": "SNB-75; CNS Cancer, SNB-75", "result": "−7.40"},
      {"measurement": "Log10LC50", "setting": "SNB-75; SNB-75 (CNS Cancer), LC50: PG=−50", "result": ">−4.30", "unit": "log10M"},
      {"measurement": "Log10TGI50", "setting": "SNB-75; SNB-75 (CNS Cancer), TGI: PG=0", "result": ">−4.30", "unit": "log10M"},
      {"measurement": "Log10GI50", "setting": "HT29; Colon Cancer, HT29", "result": "<−8.30"},
      {"measurement": "Log10LC50", "setting": "HT29; HT29 (Colon Cancer), LC50: PG=−50", "result": ">−4.30", "unit": "log10M"},
      {"measurement": "Log10TGI50", "setting": "HT29; HT29 (Colon Cancer), TGI: PG=0", "result": ">−4.30", "unit": "log10M"},
      {"measurement": "Log10LC50", "setting": "OVCAR-5; OVCAR-5 (Ovarian Cancer), LC50: PG=−50", "result": ">−4.30", "unit": "log10M"},
      {"measurement": "Log10TGI50", "setting": "OVCAR-5; OVCAR-5 (Ovarian Cancer), TGI: PG=0", "result": "−6.95", "unit": "log10M"},
      {"measurement": "Log10GI50", "setting": "OVCAR-5; Ovarian Cancer, OVCAR-5", "result": "<−8.30"},
      {"measurement": "Log10GI50", "setting": "TK-10; Renal Cancer, TK-10", "result": "−7.81"},
      {"measurement": "Log10LC50", "setting": "TK-10; TK-10 (Renal Cancer), LC50: PG=−50", "result": ">−4.30", "unit": "log10M"},
      {"measurement": "Log10TGI50", "setting": "TK-10; TK-10 (Renal Cancer), TGI: PG=0", "result": "−5.86", "unit": "log10M"},
      {"measurement": "Log10GI50", "setting": "U251; CNS Cancer, U251", "result": "<−8.30"},
      {"measurement": "Log10LC50", "setting": "U251; U251 (CNS Cancer), LC50: PG=−50", "result": ">−4.30", "unit": "log10M"},
      {"measurement": "Log10TGI50", "setting": "U251; U251 (CNS Cancer), TGI: PG=0", "result": "−7.39", "unit": "log10M"},
      {"measurement": "Log10LC50", "setting": "786-0; 786-0 (Renal Cancer), LC50: PG=−50", "result": ">−4.30", "unit": "log10M"},
      {"measurement": "Log10TGI50", "setting": "786-0; 786-0 (Renal Cancer), TGI: PG=0", "result": ">−4.30", "unit": "log10M"},
      {"measurement": "Log10GI50", "setting": "786-0; Renal Cancer, 786-0", "result": "−7.17"}
    ]}
  ]
}
